This note sets out measurements from US4849410A, “Pseudopterosin and synthetic derivatives thereof” (The Regents of the University of California, priority 1987, dated 1989).

Where only a bound is given, the exact number is not on record here.

In one data set the test system is P388 leukemia. The experiment in a line: Evaluation in mice bearing ip P388 leukemia. The data set is classed as in vivo, female B6D2F1 mice. The protocol:
Compound I was also evaluated in mice bearing P388 Leukemia as follows:
Compound I was administered to the mice as a solution by first dissolving it in N,N-dimethylacetamide, adding an equal volume of Cremophor EL and then 8 volumes of water. The drug concentration was such that the desired dose was delivered in a volume of 0.5 ml per mouse. Dilutions from the highest dose in a dose-response study were made by the addition of water so that organic component of the formulation decreased with dose reduction; the drug remained in solution.
10^6 P388 leukemia cells were implanted intraperitoneal in female B6D2F1 mice which were randomized to treatment groups of six animals each. Treatment was initiated 24 hours after tumor implantation and was continued daily for five days (Cisplatin was administered on Days 1 and 5 for the Group 1 mice). Mice were weighted as groups on Days 1, 5 and 9 to provide an indication of drug toxicity. Mice were monitored for survival daily for 45 days, and the median day of death was determined compared to three groups of untreated controls to provide percent increase in lifespan (ILS). ILS values of greater than or equal to 40 percent represent actual reduction in tumor cell burden during the course of treatment and are taken as indications of biologically significant antitumor effect.

Data set [1] relates to M5076 reticulum cell sarcoma. The experiment in a line: Activity in mice bearing ip M5076 reticulum cell sarcoma. The data set is classed as in vivo, female B6D2F1 mice. Here is the method:
(§1) Compound I was also evaluated for activity against solid tumors as follows:
(§2) One-half ml of a 10 percent (v:v) brei of tumor cells prepared from solid B16 melanoma or M5076 reticulum cell sarcoma was implanted ip in female B6D2F1 mice which were randomized to treatment groups of 8 animals each. Treatment was initiated 24 hours after tumer inoculation and was continued daily for 10 days (cisplatin was administered q4Dx4 on Days 1, 5, 9 and 13). Mice were monitored daily for 60 days, and the median day of death was determined compared to three groups of untreated controls to provide percent increase in lifespan (ILS). ILS values of greater than or equal to 50 percent represent biologically significant antitumor effects. Cisplatin was curative in M5076 with 6/8 tumor-free survivors on Day 60 at the top dose level.

A further data set relates to B16 melanoma. Description: Activity in mice bearing ip B16 melanoma. It counts as in vivo, female B6D2F1 mice. Here is the method: as §1, §2
For data set [2], the system named is Intraperitoneally Administered Phenylquinone. The experiment in a line: Phenylquinone Assay for Analgesia (writhing). It counts as in vivo, mice. Particulars: for Mean Writhes per Animal / No. Writhes / % Change Relative to Control: 25 mg/kg; for No. Writhes: total of group; for % Change Relative to Control: writhes per animal; for Analgesic Activity: summary. Here is the method:
d. Phenylquinone Assay for Analgesia
Test compound is injected subcutaneously into mice. After 30 minutes, phenylquinone is injected intraperitoneally to cause pain as indicated by writhing.
Test compound was administered subcutaneously in sesame oil at concentrations up to 5 mg per ml depending on the test compound dosage protocol. The highest dose was 50 mg per Kg. Control groups received sesame oil subcutaneously.

Data set [3] deals with Phorbol Myristate Acetate (PMA) Induced Topical Inflammation of the Mouse Ear. Description: Mouse Ear Anti-Inflammatory Assay (PMA, topical). The data set is classed as in vivo. Particulars: for Mean Ear Weight ± S.E.: Table IV, in mg; for Anti-inflammatory Activity: summary. Here is the method: a. Mouse Ear Anti-Inflammatory Assay
Test compound and phorbol myristate acetate (PMA) are topically applied simultaneously to the pinnae of the ears of mice. Three hours twenty minutes after application, mice are sacrificed, ears removed and standard sized bores taken. Edema (inflammation) is measured as the difference in weight between control and treated ears.
The vheicle or carrier for the compounds used in the inflammatory and analgesic assays was as follows; For the mouse ear inflammatory assay, the vehicle was acetone. Controls received 25 microliters of acetone. Test compounds were applied to the experimental animals in 25 microliter volumes. For the sperm motility and fertilized sea urchin egg assays, the compounds were dissolved in 10 microliters undenatured ethanol.

[4] abbreviates: Group 2, cisplatin 1 mg/kg ip, Days 1-5.
Where [5] appears, read: Group 2, cisplatin 2 mg/kg ip, Days 1-5.
Where [6] appears, read: Group I, cisplatin 3 mg/kg ip, Days 1 and 5.
[7] abbreviates: Group I, cisplatin 6 mg/kg ip, Days 1 and 5.

As for `N.N.[Cl][Pt][Cl]` [Cisplatin, reference compound], the “Increase to Lifespan” value is given as 75% in the data set with P388 leukemia (setting [4]); 200% in the data set on P388 leukemia (setting [5]); 127% with P388 leukemia (setting [6]); 177% in the data set on P388 leukemia (setting [7]); 121% in data set [1] (cisplatin 3 mg/kg ip); > 200% in data set [1] (cisplatin 5 mg/kg ip). In addition, the “Increase to Lifespan” value in the data set on B16 melanoma (cisplatin 3 mg/kg ip) was 36%; with B16 melanoma (cisplatin 6 mg/kg ip), 77%. Also, the “Median Survival Time” value in the data set on P388 leukemia (setting [4]) is given as 17.5 days; in the data set with P388 leukemia (setting [5]) it was 30 days; in the data set with P388 leukemia (setting [6]) it was 25 days; in the data set on P388 leukemia (setting [7]), 30.5 days; in data set [1] (cisplatin 3 mg/kg ip), 46.5 days; in data set [1] (cisplatin 5 mg/kg ip) it was > 60 days. Besides, the entries for the “Median Survival Time” value in the data set with B16 melanoma (cisplatin 3 mg/kg ip) and with B16 melanoma (cisplatin 6 mg/kg ip) were 30 days and 39 days, respectively. The “Weight Change Day 5” value in the data set on P388 leukemia (setting [4]) is given as -0.2 gm; in the data set with P388 leukemia (setting [5]), -2.5 gm; in the data set on P388 leukemia (setting [6]), “+0.3 gm”; with P388 leukemia (setting [7]) it was -1.2 gm. Moreover, the “Weight Change Day 9” value in the data set on P388 leukemia (setting [4]) is recorded as “+0.1 gm”; with P388 leukemia (setting [5]) it was -0.9 gm; with P388 leukemia (setting [6]), “+1.1 gm”; in the data set with P388 leukemia (setting [7]), -1.1 gm. The “Weight Change on Day 9” value is on record as “+0.1 gm” in data set [1] (cisplatin 3 mg/kg ip), -1.6 gm in data set [1] (cisplatin 5 mg/kg ip), “+1.6 gm” with B16 melanoma (cisplatin 3 mg/kg ip) and “+0.5 gm” in the data set on B16 melanoma (cisplatin 6 mg/kg ip). In data set [1] (top dose level of cisplatin), the “tumor-free survivors on Day 60” value is reported as 6/8.

Take `CC(=O)OC1=C(C)C2(O)C3=C(C1=O)C(C)CCC3C(C)CC2C=C(C)C` (stereo not shown) [Compound XI]: in data set [2], the “Mean Writhes per Animal” value came out at 12.3, the “No. Writhes” value is 37 and the “% Change Relative to Control” value is recorded as “+4%”.

For the compound `COc1c(C)c2c3c(c1O)C(C)CCC3C(C)CC2C=C(C)C` (stereo not shown) [Compound XII], in data set [2], the “Mean Writhes per Animal” value was 12.5, the “No. Writhes” value is 25 and the “% Change Relative to Control” value is “+6%”.

Consider `CC(=O)OC1C(O)COC(Oc2c(O)c(C)cc3c2C(C)CCC3C(C)CCC=C(C)C)C1O` (stereo not shown) [Compound X], for which, in data set [3] (50.0 ug/ear), the “Mean Ear Weight ± S.E.” value was 10.64 ± 1.93. For the same compound, in data set [3], the “Anti-inflammatory Activity” value was “Active”.

Regarding `COc1ccc2c(c1)c(CC(=O)O)c(C)n2C(=O)c1ccc(Cl)cc1` [indomethacin, reference compound], the decrease in edema in data set [3] (50 microgram) was found to be 50%.

Consider `CC(=O)OC1COC(Oc2c(O)c(C)cc3c2C(C)CCC3C(C)CCC=C(C)C)C(O)C1O` (stereo not shown) [Compound VIII], for which the “Mean Ear Weight ± S.E.” value in data set [3] (25.0 ug/ear) is reported as 13.93 ± 2.59; in data set [3] (50.0 ug/ear), 12.07 ± 1.69. In addition, the “Anti-inflammatory Activity” value in data set [3] is given as “Active”. The “Analgesic Activity” value in data set [2] is reported as “Active”.

In the case of `CC(C)=CCCC(C)C1CCC(C)c2c1cc(C)c(O)c2OC1OCC(O)C(O)C1O` (stereo not shown) [Compound IX], the “Mean Ear Weight ± S.E.” value in data set [3] (25.0 ug/ear) is 15.85 ± 2.51. The “Mean Ear Weight ± S.E.” value in data set [3] (50.0 ug/ear) amounted to 14.04 ± 2.38. The “Anti-inflammatory Activity” value in data set [3] was “Active”. Moreover, in data set [2], the “Mean Writhes per Animal” value stood at 6.8, the “No. Writhes” value is reported as 68, the “% Change Relative to Control” value is -26% and the “Analgesic Activity” value is “Active”.
